Experimental data taken from patent US20200102349A1, “PEPTIDE REAGENTS AND METHODS FOR DETECTION AND TARGETING OF DYSPLASIA, EARLY CANCER AND CANCER” (THE REGENTS OF THE UNIVERSITY OF MICHIGAN, priority 2014, published 2020).

What was measured:
SW480 cells = test: Peptide binding to colorectal cancer cells on confocal microscopy (SW480); assay type: cell-based, human; details: SW480, 5 μM, 3 min
Experimental: (§1) HT29, SW480, and SW620 cells (˜10^3) were grown on cover slips to ˜80% confluence. The cells were washed 1× with PBS and incubated with 5 μM of QRH*-Cy5.5 and PEH*-Cy5.5 for 3 min at RT. The cells were then washed 3× in PBS, fixed with 4% paraformaldehyde (PFA) for 5 min, washed 1× with PBS, and then mounted on glass slides with ProLong Gold reagent containing DAPI (Invitrogen). Confocal fluorescence images were collected with FITC, Cy5.5, and DAPI filters (Leica Inverted SPSX Confocal Microscope System) using a 63× oil-immersion objective. Fluorescence intensities from 5 cells in 2 independent images were quantified using custom Matlab (Mathworks) software.
We assessed binding of QRH*-Cy5.5 to a panel of colorectal cancer cells that vary in EGFR expression level on confocal microscopy. We observed binding of QRH*-Cy5.5 to the surface (arrows) of HT29, SW480, and SW620 cells with decreasing strength, FIG. 3A-C, scale bars 30 μm. […] Results are an average of 10 cells from 2 independent images. EGFR expression is shown on Western blot, FIG. 3H.

HT29 cells [1] = test: Apparent dissociation constant on flow cytometry; assay type: binding, human; details: 4° C., 1 hour
Experimental: We measured the apparent dissociation constant of the peptide to HT29 cells as an assessment of binding affinity. QRH*-Cy5.5 was serially diluted in PBS at concentrations of 0, 10, 25, 50, 75, 100, 125, 150 and 200 nM. HT29 cells (˜10^5) were incubated with QRH*-Cy5.5 at 4° C. for 1 hour, washed with cold PBS, and the mean fluorescence intensities were measured on flow cytometry. The equilibrium dissociation constant kd=1/ka was calculated by performing a least squares fit of the data to the non-linear equation […]. I0 and Imax are the initial and maximum fluorescence intensities, corresponding to no peptide and at saturation, respectively, and [X] represents the concentration of the bound peptide [Thomas et al., Clin Exp Metastasis, 26:105-119 (2009)]. Origin 6.1 data analysis software (OriginLab Corp) was used to calculate kd.

HT29 cells [2] = test: Apparent association time constant on flow cytometry; assay type: binding, human
Experimental: We measured the apparent association time constant of the peptide to HT29 cells as an assessment of binding onset. HT29 cells were grown to […] confluence in 10 cm dishes, and detached with PBS-based cell dissociation buffer (Invitrogen). Cells (˜10^5) were incubated with 5 μM QRH*-Cy5.5 at 4° C. for various time intervals ranging from 0 to 20 min. The cells were centrifuged, washed with cold PBS, and fixed with 4% PFA. Flow cytometry analysis was performed as described above, and the median fluorescence intensity (y) was ratioed with that of HT29 cells without addition of peptide at different time points (t) using Flowjo software. The rate constant k was calculated by fitting the data to a first order kinetics model, y(t)=Imax[1−exp^(−kt)], where Imax=maximum value,^60 using Prism 5.0 software (GraphPad Inc).

[3] = tested on: HT29, SW480, and SW620 cells; test: Flow cytometry binding to colorectal cancer cells; assay type: cell-based, human; details: 5 μM, 1 hour, 4° C.
Experimental: HT29, SW480, and SW620 cells were grown to confluence and detached with enzyme-free, PBS-based cell dissociation buffer (Gibco, #13151-014) and cell scrapper. The cells were centrifuged at 1500 rpm for 5 min at 4° C., and then blocked with 0.5% BSA in PBS for 30 min on ice and washed with PBS. […] were incubated with 5 μM of either QRH*-Cy5.5 or PEH*-Cy5 for 1 hour at 4° C. with mixing. Cells incubated with PBS alone were used as control. The cells were centrifuged again, washed 3× with cold PBS, and fixed on ice with 4% PFA for 10 min. Flow cytometry was performed with ˜10^4 cells/sample (BD® LSRII, BD Biosciences), and analyzed with the Flowjo software (Tree Star Inc).

[4] = tested on: dysplastic crypts in polyps; test: Immunofluorescence on mouse colon polyp specimens; details: OCT embedded polyp specimens
Experimental: Specimens of flat dysplasia in mouse colon were formalin fixed and processed as described above. Specimens of polypoid dysplasia in mouse colon were frozen in OCT (Sakura Finetek), cut in 10 μm sections, and incubated with 1:1000 dilution of primary goat anti-mouse anti-EGFR antibody and AF488-labeled secondary antibody, as described previously. The sections were washed 3× with PBS, fixed with 4% PFA for 10 min, washed with PBS 1×, and mounted with Prolong Gold reagent containing DAPI (Invitrogen). Confocal microscopy images were collected with DAPI, AF488, and Cy5.5 filters. Adjacent sections were processed for histology (H&E).

EGFR = EGFR (Homo sapiens, UniProt P00533); test: siRNA knockdown of EGFR in HT29 cells, confocal fluorescence microscopy; assay type: cell-based; design: endogenous in cells; host or cells: HT29 human colorectal adenocarcinoma cells (ATCC)
Experimental: as §1
We used siRNA to knockdown expression of EGFR in HT29 cells. We used ON-TARGETplus human EGFR siRNA and ON-TARGETplus non-targeting pool (Thermo Scientific) per manufacturer's protocol. 5 μL of siRNA at 5 μM/L concentration was transfected into HT29 cells using DharmaFECT (Thermo Scientific). QRH*-Cy5.5 and PEH*-Cy5.5 were incubated with HT29 siEGFR and siCL cells. The cells were fixed with either 4% PFA or methanol. A 1:1000 dilution of primary monoclonal mouse anti-EGFR antibody (Thermo Scientific, # MS-396, clone 199.12, IgG2a isotype) was incubated overnight at 4° C. Afterwards, the cells were washed 3× with PBS, and further incubated with 1:500 dilution of AF488-labeled secondary goat anti-mouse IgG antibody (Life Technologies, # A-11029) for 1 hour at RT, washed 3×, and then mounted on glass slides with ProLong Gold reagent containing DAPI (Invitrogen). Confocal fluorescence images were collected with FITC, Cy5.5, and DAPI filters using a 63× oil-immersion objective.
We validated specific binding of QRH*-Cy5.5 to EGFR on siRNA knockdown in HT29 cells. On confocal microscopy, QRH*-Cy5.5 (red), FIG. 2A, and AF488-labeled anti-EGFR (green), FIG. 2B, bind strongly to the surface (arrows) of control HT29 cells (transfected with siCL, non-targeting siRNA), scale bars 30 μm. […] The results (mean±std) for QRH*-Cy5.5, anti-EGFR AF488, and PEH*-Cy5.5 to control cells (siCL) were 7.8±1.7, 3.1±1.0, and 1.6±0.3 AU, respectively, and to EGFR knockdown cells (siEGFR) were 2.5±0.8, 1.0±0.4, and 1.9±0.7 AU, respectively, *P<0.01 by paired t-test, FIG. 2G. Results are an average of 10 cells from 2 images performed independently. EGFR expression is shown on Western blot, FIG. 12H.

- fluorescence for binding to dysplastic crypts [4]: increased fluorescence
- fluorescence intensity (mean±std) (EGFR; EGFR knockdown HT29 cells (siEGFR)): 2.5±0.8 AU
- fluorescence intensity (mean±std) (EGFR; control HT29 cells (siCL, non-targeting siRNA)): 7.8±1.7 AU
Substance: QRHKPRE (SEQ ID NO: 1) with Cy5.5 fluorophore attached via a GGGSK linker (SEQ ID NO: 18) on the C-terminus [QRH*-Cy5.5]
- fluorescence intensity of binding (mean±std) (SW480 cells): 2.4±0.4
- Kd (HT29 cells [1]): 50 nM
- binding time scale (onset) (HT29 cells [2]): 2.46 min
- apparent association time constant k (HT29 cells [2]; 5 μM, 4° C., flow cytometry): 0.406 min⁻¹
- binding on flow cytometry compared with control peptide [3]: stronger binding to each cell than PEH*-Cy5.5
